The subject of one test is infantile hemangioma. Put plainly: Topical treatment of infantile hemangioma in a child. The following applies: cream 2.5%, topical twice a day, 1, 2 and 3 months, one child. The format is in vivo, human. From the text:
Photographs of a child showing the effects of the topical treatment with a cream comprising 2,5-dihydroxybenzenesulfonic (DHBS) (2.5%) in a baby suffering infantile hemangioma.
The cream comprising 2,5-dihydroxybenzene sulfonic (2.5%) was topically applied twice a day for 3 months on the face of a child suffering from infantile hemangioma.

For another test, the system named is Nakagawa angioblastoma. The test can be described thus: Topical treatment of Nakagawa angioblastoma (hemangioblastoma) in a child. The format is in vivo, human. The following applies: cream 2.5%, topical twice a day, 1 month, one child. An excerpt:
Photographs showing the effects of a topical treatment with a cream comprising 2,5-dihydroxybenzenesulfonic (DHBS) in a child suffering from Nakagawa angioblastoma.
The cream comprising 2,5-dihydroxybenzene sulfonic (2.5%) was topically applied twice a day during 1 month on the face of the child suffering from Nakagawa angioblastoma.

The test system of a further test is pterygium. The test can be described thus: Topical treatment of pterygium in a patient. Type of test: in vivo, human. The settings on record: 2.5% solution, one drop four times per day, two weeks. From the text:
FIG. 3. […] The treatment consists of the application of 4 drops of said solution daily, for two weeks.
The solution was applied topically to a patient suffering from unilateral pterygium, as one drop four times per day.

For test [1], the system named is human retinal endothelial cells (HREC). The test can be described thus: Proliferation of human retinal endothelial cells (HREC, crystal violet). The format is cell-based. The settings on record: calcium 2,5-dihydroxybenzenesulfonate, 100 μM, 72 h, for comparison. How it is done:
(§1) 2A-5HBS was administered or not administered (control) after seeding the HREC in 24-well plates (7.5×10^3 per well) until they were fixed after 72 hours. The data are expressed as the mean±SEM of the percentage of the absorbance at 595 nm obtained in the control cultures, which is proportional to the number of cells stained with crystal violet. The data were obtained from 6 cultures for each treatment in two separate experiments. The white bar represents the value of the control cells, whereas the gray bars show the value in the presence of 2A-5HBS (500 and 1000 μM). * indicates p<0.05, *** p<0.001 with respect to the control by means of a single-factor analysis of variance (ANOVA) followed by a Student-Newman-Keuls post-analysis.
as §1, with “5A-2HBS” for “2A-5HBS”, “striped” for “gray”, “***” for “*”, “indicates” for “indicates p<0.05, ***”
2,5-DHCME was administered or not administered (control) after seeding the HREC in 24-well plates (7.5×10^3 per well) until they were fixed after 72 hours. The data are expressed as the mean±SEM of the percentage of the absorbance at 595 nm obtained in the control cultures, which is proportional to the number of cells stained with crystal violet. The data were obtained from 6 cultures for each treatment in two separate experiments.
Primary cultures of human retinal endothelial cells (HREC) were used. Cells were obtained from Cell Systems (Virginia, USA) and subcultured with CSC complete medium (Cell Systems). Cells at 2 to 5 passages were seeded in 24-well plates at 7,500 cells/well density and, once attached, the cells were treated o not treated (controls) with 2A-5HBS (500 and 1000 μM) or 5A-2HBS (500 and 1000 μM) and they were allowed to proliferate for 72 hours, with daily medium changes. After that, the proliferation of HREC was evaluated by staining the fixed cells with crystal violet. The number of cells is proportional to the amount of retained dye, which was spectrophotometrically determined by measuring absorbance at 595 nm after removing the dye from the cells. Data are expressed as the percentage of absorbance at 595 nm obtained in control conditions. Data were obtained from two different experiments performed in triplicate.
Primary cultures of human retinal endothelial cells (HREC) were used. Cells were obtained from Cell Systems (Virginia, USA) and subcultured with CSC complete medium (Cell Systems). […] After that, the proliferation of HREC was evaluated by staining the fixed cells with crystal violet. The number of cells is proportional to the amount of retained dye, which was spectrophotometrically determined by measuring absorbance at 595 nm after removing the dye from the cells. Data are expressed as the percentage of absorbance at 595 nm obtained in control conditions. […]

Structures are written as SMILES.

With `O=S(=O)(O)c1cc(O)ccc1O` [DHBS, 2,5-dihydroxybenzenesulfonic acid], the hemangioma lesion appearance result in the test with infantile hemangioma is given as “substantial recovery of the lesion”. Further, the results for the “intensity of the coloration caused by the lesion” value with Nakagawa angioblastoma and with Nakagawa angioblastoma (listed as 2,5-dihydroxybenzene sulfonic) were “decrease in the intensity of the coloration” and “reduction in the intensity of the reddish coloration”, respectively. Further, the pterygium entry with pterygium was “partial reversal of the pterygium”. For the same compound, the HREC proliferation result in test [1] is reported as “failed to significantly affect”.
